The assay concerns MV-4-11 cells. In words: Gene expression microarray analysis (Affymetrix PrimeView) and GSEA. It counts as cell-based, human. Also on record: RFU PODN (11730768_x_at) / Fold change /veh PODN (11730768_x_at) / RFU LINC00158 (11744669_a_at) / Fold change /veh LINC00158 (11744669_a_at) / RFU DUSP10 (11751237_a_at) / Fold change /veh DUSP10 (11751237_a_at) / RFU ID3 (11757404_x_at) / Fold change /veh ID3 (11757404_x_at) / RFU PLEKHG5 (11737974_s_at) / Fold change /veh PLEKHG5 (11737974_s_at) / RFU LRRC4B (11730491_at) / Fold change /veh LRRC4B (11730491_at) / RFU GIMAP4 (11747438_a_at) / Fold change /veh GIMAP4 (11747438_a_at) / RFU KRT8 (11758183_x_at) / Fold change /veh KRT8 (11758183_x_at) / RFU CNN1 (11734310_a_at) / Fold change /veh CNN1 (11734310_a_at) / RFU VPS37D (11726825_at) / Fold change /veh VPS37D (11726825_at) / RFU C10orf10 (11716522_x_at) / Fold change /veh C10orf10 (11716522_x_at) / RFU KIR2DL2 /// KIR2DL4 /// KIR2DL5A /// KIR2DL5B /// KIR2DS1 /// KIR2DS2 /// KIR2DS3 /// KIR2DS4 /// KIR3DL3 /// KIR3DL3 /// KIR3DS1 (11738374_at) / Fold change /veh KIR2DL2 /// KIR2DL4 /// KIR2DL5A /// KIR2DL5B /// KIR2DS1 /// KIR2DS2 /// KIR2DS3 /// KIR2DS4 /// KIR3DL3 /// KIR3DL3 /// KIR3DS1 (11738374_at) / RFU C1QL1 (11718748_at) / Fold change /veh C1QL1 (11718748_at) / RFU TMPRSS4 (11747572_a_at) / Fold change /veh TMPRSS4 (11747572_a_at) / RFU HAMP (11756126_x_at) / Fold change /veh HAMP (11756126_x_at) / RFU RNFT2 (11725882_a_at) / Fold change /veh RNFT2 (11725882_a_at) / RFU NR4A2 (11747474_a_at) / Fold change /veh NR4A2 (11747474_a_at) / RFU ABCC12 (11746883_a_at) / Fold change /veh ABCC12 (11746883_a_at) / RFU TMEM136 (11760407_x_at) / Fold change /veh TMEM136 (11760407_x_at) / RFU CLDN22 /// WWC2 (11732394_at) / Fold change /veh CLDN22 /// WWC2 (11732394_at) / RFU HLA-DPB1 (11760878_x_at) / Fold change /veh HLA-DPB1 (11760878_x_at) / RFU SPINT1 (11716480_a_at) / Fold change /veh SPINT1 (11716480_a_at) / RFU GAP43 (11754022_s_at) / Fold change /veh GAP43 (11754022_s_at) / RFU A4GNT (11735810_at) / Fold change /veh A4GNT (11735810_at) / RFU PRB3 (11715151_x_at) / Fold change /veh PRB3 (11715151_x_at) / RFU TUBB4B (11761932_at) / Fold change /veh TUBB4B (11761932_at) / RFU CAPN14 (11732068_a_at) / Fold change /veh CAPN14 (11732068_a_at) / RFU TMCC2 (11721928_a_at) / Fold change /veh TMCC2 (11721928_a_at) / RFU IRGQ (11745062_a_at) / Fold change /veh IRGQ (11745062_a_at) / RFU FAM174B (11720279_a_at) / Fold change /veh FAM174B (11720279_a_at) / RFU TMPRSS4 (11748680_a_at) / Fold change /veh TMPRSS4 (11748680_a_at) / RFU FAM212B (11763350_a_at) / Fold change /veh FAM212B (11763350_a_at) / RFU PLEKHG5 (11743358_a_at) / Fold change /veh PLEKHG5 (11743358_a_at) / RFU ZSCAN30 (11745921_a_at) / Fold change /veh ZSCAN30 (11745921_a_at) / RFU CMKLR1 (11741424_a_at) / Fold change /veh CMKLR1 (11741424_a_at) / RFU LOC101060620 /// MAPK8IP1 (11723275_at) / Fold change /veh LOC101060620 /// MAPK8IP1 (11723275_at) / RFU SPTSSB (11747773_x_at) / Fold change /veh SPTSSB (11747773_x_at) / RFU PRSS12 (11739890_at) / Fold change /veh PRSS12 (11739890_at) / RFU BIN1 (11741810_x_at) / Fold change /veh BIN1 (11741810_x_at) / RFU WNT11 (11732464_a_at) / Fold change /veh WNT11 (11732464_a_at) / RFU C10orf10 (11716521_a_at) / Fold change /veh C10orf10 (11716521_a_at) / RFU C5orf56 (11738089_at) / Fold change /veh C5orf56 (11738089_at) / RFU CYB561 (11721691_x_at) / Fold change /veh CYB561 (11721691_x_at) / RFU ANKRD19P (11752326_a_at) / Fold change /veh ANKRD19P (11752326_a_at) / RFU OR2T12 /// OR2T33 /// OR2T8 (11738714_s_at) / Fold change /veh OR2T12 /// OR2T33 /// OR2T8 (11738714_s_at) / RFU VCAN (11748164_a_at) / Fold change /veh VCAN (11748164_a_at) / RFU JSRP1 (11732532_at) / Fold change /veh JSRP1 (11732532_at) / RFU KRTAP10-11 (11738290_x_at) / Fold change /veh KRTAP10-11 (11738290_x_at) / RFU MYO3A (11730013_a_at) / Fold change /veh MYO3A (11730013_a_at) / RFU EBF3 (11725865_a_at) / Fold change /veh EBF3 (11725865_a_at) / RFU CAMK2N1 (11719241_x_at) / Fold change /veh CAMK2N1 (11719241_x_at) / RFU C5orf56 (11738088_a_at) / Fold change /veh C5orf56 (11738088_a_at) / RFU OLFML3 (11715873_a_at) / Fold change /veh OLFML3 (11715873_a_at) / RFU LOC100653217 /// NTM (11731650_a_at) / Fold change /veh LOC100653217 /// NTM (11731650_a_at) / RFU MAPK11 (11762145_a_at) / Fold change /veh MAPK11 (11762145_a_at) / RFU FIZ1 (11724087_x_at) / Fold change /veh FIZ1 (11724087_x_at) / RFU OASL (11726364_x_at) / Fold change /veh OASL (11726364_x_at) / RFU SOX15 (11748057_x_at) / Fold change /veh SOX15 (11748057_x_at) / RFU CD79A (11719716_a_at) / Fold change /veh CD79A (11719716_a_at) / RFU HIST1H1D (11736915_at) / Fold change /veh HIST1H1D (11736915_at) / RFU CASKIN2 (11723855_a_at) / Fold change /veh CASKIN2 (11723855_a_at) / RFU LOC730098 (11760151_x_at) / Fold change /veh LOC730098 (11760151_x_at) / RFU OR4N2 (11742367_at) / Fold change /veh OR4N2 (11742367_at) / RFU PRRT2 (11749266_a_at) / Fold change /veh PRRT2 (11749266_a_at) / RFU SNX32 (11753110_a_at) / Fold change /veh SNX32 (11753110_a_at) / RFU CDHR5 (11726645_a_at) / Fold change /veh CDHR5 (11726645_a_at) / RFU RCAN1 (11760418_a_at) / Fold change /veh RCAN1 (11760418_a_at) / RFU FAM167A (11723789_a_at) / Fold change /veh FAM167A (11723789_a_at) / RFU FAM26E (11764081_at) / Fold change /veh FAM26E (11764081_at) / RFU ISYNA1 (11749810_s_at) / Fold change /veh ISYNA1 (11749810_s_at) / RFU ACY1 (11761880_at) / Fold change /veh ACY1 (11761880_at) / RFU 11764098_at / Fold change /veh 11764098_at / RFU SAMD14 (11745864_x_at) / Fold change /veh SAMD14 (11745864_x_at) / RFU NPB (11741838_a_at) / Fold change /veh NPB (11741838_a_at) / RFU TMPRSS6 (11731388_a_at) / Fold change /veh TMPRSS6 (11731388_a_at) / RFU KRTAP10-2 (11738614_at) / Fold change /veh KRTAP10-2 (11738614_at) / RFU ARHGAP8 /// PRR5-ARHGAP8 (11727945_x_at) / Fold change /veh ARHGAP8 /// PRR5-ARHGAP8 (11727945_x_at) / RFU KRTAP5-7 /// NADSYN1 (11734609_at) / Fold change /veh KRTAP5-7 /// NADSYN1 (11734609_at) / RFU RASL12 (11751679_a_at) / Fold change /veh RASL12 (11751679_a_at) / RFU CDKN2B (11736163_a_at) / Fold change /veh CDKN2B (11736163_a_at) / RFU PRF1 (11729649_at) / Fold change /veh PRF1 (11729649_at) / RFU, ZNF638 /// ZNF638-IT1 / Fold change vs veh, ZNF638 /// ZNF638-IT1 / RFU, PANK3 / Fold change vs veh, PANK3 / RFU, SH3YL1 / Fold change vs veh, SH3YL1 / RFU, ZEB2 / Fold change vs veh, ZEB2 / RFU, NRIP1 / Fold change vs veh, NRIP1 / RFU, PTTG1IP / Fold change vs veh, PTTG1IP / RFU, CAPN2 / Fold change vs veh, CAPN2 / RFU, MED14 / Fold change vs veh, MED14 / RFU, SNORA58 / Fold change vs veh, SNORA58 / RFU, C1orf63 / Fold change vs veh, C1orf63 / RFU, LRRFIP1 / Fold change vs veh, LRRFIP1 / RFU, NDUFAF7 / Fold change vs veh, NDUFAF7 / RFU, SLC12A2 / Fold change vs veh, SLC12A2 / RFU, IBTK / Fold change vs veh, IBTK / RFU, ESF1 / Fold change vs veh, ESF1 / Fold change vs veh, TMEM50B / RFU, TAOK1 / Fold change vs veh, TAOK1 / RFU, ACBD3 / Fold change vs veh, ACBD3 / RFU, TMA16 / Fold change vs veh, TMA16 / RFU, RWDD3 / Fold change vs veh, RWDD3 / RFU, BCAT1 / Fold change vs veh, BCAT1 / RFU, EDEM3 / Fold change vs veh, EDEM3 / RFU, TMEM33 / Fold change vs veh, TMEM33 / RFU, WDR75 / Fold change vs veh, WDR75 / RFU, AHCTF1 / Fold change vs veh, AHCTF1 / RFU, TFRC / Fold change vs veh, TFRC / RFU, ZDHHC17 / Fold change vs veh, ZDHHC17 / RFU, NOM1 / Fold change vs veh, NOM1 / RFU, ARL8B / Fold change vs veh, ARL8B / RFU, ZBTB11 / Fold change vs veh, ZBTB11 / RFU, TAMM41 / Fold change vs veh, TAMM41 / RFU, KIAA1704 /// LOC100996395 / Fold change vs veh, KIAA1704 /// LOC100996395 / RFU, ING1 / Fold change vs veh, ING1 / RFU, TRMT61B / Fold change vs veh, TRMT61B / RFU, FUBP3 / Fold change vs veh, FUBP3 / RFU, TP53 / Fold change vs veh, TP53 / RFU, TNKS2 / Fold change vs veh, TNKS2 / RFU, ZFP14 / Fold change vs veh, ZFP14 / RFU, ACTR2 / Fold change vs veh, ACTR2 / RFU, PPP3R1 / Fold change vs veh, PPP3R1 / RFU, PIK3R1 / Fold change vs veh, PIK3R1 / RFU, HNRNPA1 / Fold change vs veh, HNRNPA1 / RFU, RNF170 / Fold change vs veh, RNF170 / RFU, ZNF28 / Fold change vs veh, ZNF28 / RFU, RNGTT / Fold change vs veh, RNGTT / RFU, OGT / Fold change vs veh, OGT / RFU, BRD1 / Fold change vs veh, BRD1 / RFU, MARS / Fold change vs veh, MARS / RFU, ZNF655 / Fold change vs veh, ZNF655 / RFU, FAHD1 / Fold change vs veh, FAHD1 / RFU, BDP1 / Fold change vs veh, BDP1 / RFU, LRRCC1 / Fold change vs veh, LRRCC1 / RFU, ARID1A / Fold change vs veh, ARID1A / RFU, ZNF146 / Fold change vs veh, ZNF146 / RFU, ZNF330 / Fold change vs veh, ZNF330 / RFU, GPN3 / Fold change vs veh, GPN3 / RFU, C9orf123 / Fold change vs veh, C9orf123 / RFU, N4BP2L2 / Fold change vs veh, N4BP2L2 / RFU, ARFIP1 / Fold change vs veh, ARFIP1 / RFU, FAM179B / Fold change vs veh, FAM179B / RFU, BCL10 / Fold change vs veh, BCL10 / RFU, UHRF1BP1L / Fold change vs veh, UHRF1BP1L / RFU, BET1 / Fold change vs veh, BET1 / RFU, CNOT2 / Fold change vs veh, CNOT2 / RFU, ZNF268 / Fold change vs veh, ZNF268 / Fold change vs veh, ZNF507 / RFU, DGCR2 / Fold change vs veh, DGCR2 / RFU, WDSUB1 / Fold change vs veh, WDSUB1 / Fold change vs veh, HSP90B1 /// MIR3652 / RFU, ADSS / Fold change vs veh, ADSS / RFU, GK / Fold change vs veh, GK / RFU, ZNF148 / Fold change vs veh, ZNF148 / RFU, TAF9 / Fold change vs veh, TAF9 / RFU, SLC1A5 / Fold change vs veh, SLC1A5 / RFU, SLMO2 / Fold change vs veh, SLMO2 / RFU, ABCC4 / Fold change vs veh, ABCC4 / RFU, LOC101060439 /// RAP1B / Fold change vs veh, LOC101060439 /// RAP1B / RFU, RFX7 / Fold change vs veh, RFX7 / RFU, GTPBP10 / Fold change vs veh, GTPBP10 / RFU, CNEP1R1 / Fold change vs veh, CNEP1R1 / RFU, BIVM-ERCC5 /// ERCC5 / Fold change vs veh, BIVM-ERCC5 /// ERCC5 / RFU, ILF3 / Fold change vs veh, ILF3 / RFU 11762660_at / Fold change /veh 11762660_at / RFU VCAN (11757783_s_at) / Fold change /veh VCAN (11757783_s_at) / RFU DDX43 (11728927_at) / Fold change /veh DDX43 (11728927_at) / RFU KRT8 (11758188_x_at) / Fold change /veh KRT8 (11758188_x_at) / RFU NKD1 (11759106_at) / Fold change /veh NKD1 (11759106_at) / RFU SRD5A1 (11742802_a_at) / Fold change /veh SRD5A1 (11742802_a_at) / RFU TPSAB1 /// TPSB2 (11721975_s_at) / Fold change /veh TPSAB1 /// TPSB2 (11721975_s_at) / RFU GSTM3 (11746129_a_at) / Fold change /veh GSTM3 (11746129_a_at) / RFU IL23R (11737362_x_at) / Fold change /veh IL23R (11737362_x_at) / RFU TMEM51 (11727254_a_at) / Fold change /veh TMEM51 (11727254_a_at) / RFU PIWIL2 (11732686_x_at) / Fold change /veh PIWIL2 (11732686_x_at) / RFU ORM1 (11744905_x_at) / Fold change /veh ORM1 (11744905_x_at) / RFU CCDC152 (11743942_at) / Fold change /veh CCDC152 (11743942_at) / RFU ECM1 (11717891_a_at) / Fold change /veh ECM1 (11717891_a_at) / RFU IL23R (11748794_a_at) / Fold change /veh IL23R (11748794_a_at) / RFU TNFAIP8L3 (11732012_x_at) / Fold change /veh TNFAIP8L3 (11732012_x_at) / RFU MBOAT4 (11741988_at) / Fold change /veh MBOAT4 (11741988_at) / RFU 11764193_at / Fold change /veh 11764193_at / RFU TMEM53 (11763286_at) / Fold change /veh TMEM53 (11763286_at) / RFU MAGEB2 (11727129_at) / Fold change /veh MAGEB2 (11727129_at) / RFU TMEM200A (11744735_a_at) / Fold change /veh TMEM200A (11744735_a_at) / RFU CCDC152 (11751479_a_at) / Fold change /veh CCDC152 (11751479_a_at) / RFU FAM211A (11726209_a_at) / Fold change /veh FAM211A (11726209_a_at) / RFU RGS16 (11746705_a_at) / Fold change /veh RGS16 (11746705_a_at) / RFU VCAN (11755009_s_at) / Fold change /veh VCAN (11755009_s_at) / RFU RHOB (11743442_s_at) / Fold change /veh RHOB (11743442_s_at) / RFU RGS16 (11720943_a_at) / Fold change /veh RGS16 (11720943_a_at) / RFU RGS16 (11720944_at) / Fold change /veh RGS16 (11720944_at) / RFU, VPS4B / Fold change vs veh, VPS4B / RFU, CREB1 / Fold change vs veh, CREB1 / RFU, DNAJC13 / Fold change vs veh, DNAJC13 / RFU, GNAQ / Fold change vs veh, GNAQ / RFU, CDK5R1 / Fold change vs veh, CDK5R1 / RFU, ZRANB3 / Fold change vs veh, ZRANB3 / RFU, CUL4A / Fold change vs veh, CUL4A / RFU, CCNY / Fold change vs veh, CCNY / RFU, UFL1 / Fold change vs veh, UFL1 / RFU, COG3 / Fold change vs veh, COG3 / RFU, DIAPH2 / Fold change vs veh, DIAPH2 / RFU, SKA2 / Fold change vs veh, SKA2 / RFU, AFF3 / Fold change vs veh, AFF3 / RFU, LMF1 / Fold change vs veh, LMF1 / RFU, IPO11 / Fold change vs veh, IPO11 / RFU, DFFB / Fold change vs veh, DFFB / RFU, FOXP1 / Fold change vs veh, FOXP1 / RFU, CARD8 / Fold change vs veh, CARD8 / RFU, STRN3 / Fold change vs veh, STRN3 / RFU, ADK / Fold change vs veh, ADK / RFU, RASSF2 / Fold change vs veh, RASSF2 / RFU, WIPF1 / Fold change vs veh, WIPF1 / RFU, LARP1B / Fold change vs veh, LARP1B / RFU, RASA1 / Fold change vs veh, RASA1 / RFU, RB1 / Fold change vs veh, RB1 / RFU, PPFIA1 / Fold change vs veh, PPFIA1 / RFU, MAT2A / Fold change vs veh, MAT2A / RFU, CCT5 / Fold change vs veh, CCT5 / RFU, WDR92 / Fold change vs veh, WDR92 / RFU, CUX1 / Fold change vs veh, CUX1 / RFU, TTC7A / Fold change vs veh, TTC7A / RFU, TMEM135 / Fold change vs veh, TMEM135 / RFU, DEPTOR / Fold change vs veh, DEPTOR / RFU, CPM / Fold change vs veh, CPM / RFU, DNAJB6 / Fold change vs veh, DNAJB6 / RFU, CACNA2D3 / Fold change vs veh, CACNA2D3 / RFU, DTX4 / Fold change vs veh, DTX4 / RFU, TFCP2 / Fold change vs veh, TFCP2 / RFU, GMCL1 /// GMCL1P1 / Fold change vs veh, GMCL1 /// GMCL1P1 / RFU, AEBP2 / Fold change vs veh, AEBP2 / RFU, SNHG1 /// SNORD22 /// SNORD25 /// SNORD26 /// SNORD27 /// SNORD28 /// SNORD29 /// SNORD31 / Fold change vs veh, SNHG1 /// SNORD22 /// SNORD25 /// SNORD26 /// SNORD27 /// SNORD28 /// SNORD29 /// SNORD31 / Fold change (Aza/veh), C12orf56 (ProbeSet 11735607_a_at) / Fold change (ACY-1035/veh), C12orf56 (ProbeSet 11735607_a_at) / Fold change (Aza/veh), FGFR1OP (ProbeSet 11751329_s_at) / Fold change (ACY-1035/veh), FGFR1OP (ProbeSet 11751329_s_at) / Fold change (Aza/veh), VPS36 (ProbeSet 11739960_a_at) / Fold change (ACY-1035/veh), VPS36 (ProbeSet 11739960_a_at) / RFU SYPL1 (11715823_x_at) / Fold change /veh SYPL1 (11715823_x_at) / RFU IGFBP7 (11715501_s_at) / Fold change /veh IGFBP7 (11715501_s_at) / RFU REEP3 (11722064_at) / Fold change /veh REEP3 (11722064_at) / RFU IGLL1 (11728026_x_at) / Fold change /veh IGLL1 (11728026_x_at): dose or concentration left out as unconfirmed. As to conditions: ProbeSet 11748670_a_at; LIST B.

For the compound `Nc1ccc(-c2cccs2)cc1NC(=O)c1ccc2c(c1)cc(C1CC1)n2CCN1CCOCC1` [ACY-1035], the “Fold change vs veh, PIK3R1” value was determined as 0.90.

Values taken from article PMC5218480 (PLoS ONE, 2017).
